Source: PubChem BioAssay (NCI)
Several values for one entry are separate records, joined by “and”; a condition that tells them apart may be missing. Identical values can stand only once.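 Exposure lasted 48 hours, with cells grown in 96-well plates and compounds tested at five concentrations. GI50 marks 50% less growth. The concentration for full growth arrest is given as TGI.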

Tests used:
Assay in all cases: NCI-60 cell line screen, 48 h
[1] = tested on: CAKI-1 renal
[2] = tested on: M14 melanoma
[3] = tested on: UACC-257 melanoma
[4] = tested on: OVCAR-3 ovarian
[5] = tested on: COLO 205 colon
[6] = tested on: SW-620 colon
[7] = tested on: HOP-92 NSCLC
[8] = tested on: TK-10 renal
[9] = tested on: HS 578T breast
[10] = tested on: PC-3 prostate

Row | Compound | TGI [1] [µM] | TGI [2] [µM] | TGI [3] [µM] | TGI [4] [µM] | TGI [5] | TGI [6] [µM] | TGI [7] [µM] | TGI [8] [µM] | GI50 [9] | TGI [9] [µM] | GI50 [2] [µM] | GI50 [3] [µM] | GI50 [4] | GI50 [10] | TGI [10] [µM] | GI50 [5] | GI50 [6] | GI50 [7] [µM] | GI50 [1] [µM] | GI50 [8] [µM]
1 | CCC(CO)COC(=O)/C=C/C(=O)OCC(CC)CO (stereo unspecified) | > 100 | > 100 | > 100 | > 100 | > 100 µM | > 100 | > 100 | > 100 | – | – | – | – | – | – | – | – | – | – | – | –
2 | O=[N+]([O-])c1cccc(C=NC23CC4CC(CC(C4)C2)C3)c1 | > 100 | > 100 | > 100 | > 100 | > 100 µM | > 100 | > 100 | > 100 | – | – | – | – | – | – | – | – | – | – | – | –
3 | COc1ccc(-c2nc(Nc3ccc(F)cc3)nc(Nc3ccc4c(c3)nc(C)n4Cc3ccccc3)n2)cc1 | – | > 100 | > 100 | > 100 | 5.95 µM | > 100 | > 100 | – | 6.63 µM | > 100 | 3.72 | 7.17 | 6.54 µM | 3.11 µM | > 100 | 2.28 µM | 5.25 µM | 2.59 | – | –
4 | N#C/C(=C\c1ccc([N+](=O)[O-])cc1)n1nnc2cc(F)c(F)cc21 | 2.92 | 3.74 | 5.65 | 3.58 | 3.93 µM | 3.53 | – | 3.33 | 2.65 µM | 11.4 | 1.83 | 2.17 | 1.85 µM | 1.72 µM | 4 | 1.89 µM | 1.73 µM | – | 1.54 | 1.89
5 | CN(CC(=O)O)S(=O)(=O)c1ccc(Cl)cc1 | > 100 | > 100 | > 100 | > 100 | > 100 µM | > 100 | > 100 | > 100 | – | – | – | – | – | – | – | – | – | – | – | –
6 | S=c1sc2sc(=S)sc2s1 | > 100 | 59 | > 100 | – | > 100 µM | > 100 | > 100 | > 100 | – | – | – | – | – | – | – | – | – | – | – | –
7 | O=C([CH-]C(=O)c1ccccc1)c1ccccc1.O=C([CH-]C(=O)c1ccccc1)c1ccccc1.[CH2-]CCC.[CH2-]CCC.[Sn+4] | 0.462 | 1.59 | – | 2.13 | 1.23 µM | 0.325 | – | 1.11 | – | – | 0.394 | – | 0.758 µM | – | – | 0.31 µM | 0.133 µM | – | 0.067 | 0.38
8 | COC(=O)Nc1nc2ccc(C(=O)C3CC3)cc2[nH]1 | > 51.6 | – | > 100 | 0.448 | 10.4 µM | > 100 | – | 47.2 | 0.28 µM | 0.853 | 0.276 | 0.417 | 0.207 µM | 0.346 µM | > 100 | 0.392 µM | 0.297 µM | – | 0.305 | 1.38
9 | S=C1NC(c2ccccc2)=NC(Cc2ccccc2)(c2ccccc2)N1c1ccccc1 (stereo unspecified) | > 100 | > 100 | > 100 | > 100 | > 100 µM | > 100 | > 100 | > 100 | – | – | – | – | – | – | – | – | – | – | – | –
10 | COC(=O)CCC(=O)C(CC(=O)OC)C(=O)CCC(=O)NCCc1ccccc1 (stereo unspecified) | > 100 | > 100 | > 100 | > 100 | > 100 µM | > 100 | > 100 | > 100 | – | – | – | – | – | – | – | – | – | – | – | –
11 | OC1CCC(COC(c2ccccc2)(c2ccccc2)c2ccccc2)O1 (stereo unspecified) | 30.9 | 32.7 | 34.1 | 32.4 | 30.8 µM | 37.2 | – | > 10 | – | 35.7 | – | – | – | – | 24.3 | – | – | – | – | –
12 | COC(=O)C(=O)C(C(=O)C(=O)Nc1ccccc1C(N)=O)c1nc2ccc([N+](=O)[O-])cc2[nH]c1=O (stereo unspecified) | > 100 | > 100 | > 100 | – | > 100 µM | > 100 | > 100 | > 100 | – | – | – | – | – | – | – | – | – | – | – | –
13 | ClCCN(CCCl)c1ccc(OCc2ccccc2)cc1 | 66.5 | 42.2 | 39.6 | 34.8 | 32.4 µM | 65.8 | – | – | 15.7 µM | 69.4 | 4.16 | 6.3 | 8.54 µM | 5.28 µM | > 100 | 12.1 µM | 6.46 µM | – | 0.709 | –
14 | Cn1cnc([N+](=O)[O-])c1Sc1nccn1-c1ccccc1 | > 100 | > 100 | > 100 | > 100 | > 100 µM | > 100 | 81.1 | > 100 | – | – | – | – | – | – | – | – | – | – | – | –
15 | N#CCC(=O)N/N=C(/C(=O)Nc1ccccc1)C1C(=O)N(c2ccccc2)N=C1N (stereo unspecified) | > 100 | > 100 | > 100 | > 100 | > 100 µM | > 100 | > 100 | > 100 | – | – | – | – | – | – | – | – | – | – | – | –
16 | Cc1cc2c(=O)cc(-c3ccc(Cl)c(Cl)c3)oc2c(C(=O)O)c1C | > 100 | > 100 | > 100 | > 100 | > 100 µM | > 100 | – | > 100 | – | – | – | – | – | – | – | – | – | – | – | –
17 | CN1C(=O)CNS1(=O)=O | – | > 100 | > 100 | > 100 | – | > 100 | > 100 | > 100 | – | – | – | – | – | – | – | – | – | – | – | –
18 | CCOc1ccc(N=C2NC(=O)C(CC(=O)Nc3ccc(Cl)cc3Cl)S2)cc1 (stereo unspecified) | > 100 | > 100 | > 100 | > 100 | > 100 µM | > 100 | – | > 100 | – | – | – | – | – | – | – | – | – | – | – | –
19 | COC(=O)CC12CC(NC(=O)c3csc([C@@H](C[C@H](C(C)C)N(C)C(=O)[C@@H](NC(=O)[C@H]4CCCCN4C)C(C)C)OC(C)=O)n3)(C1)C2 | – | – | > 33.3 | – | 0.00961 µM and 0.0401 µM | > 33.3 | 4.73 | > 33.3 | 0.00396 µM and 0.00902 µM | > 33.3 | 0.00355 | 23.7 | 0.0029 µM and 0.00333 µM | 0.00396 µM and 0.0101 µM | > 33.3 | 0.0027 µM and 0.00684 µM | 0.0035 µM and 0.0102 µM | 0.0174 | – | 0.415
20 | Cc1ccccc1C(C#N)/C(=N/NC(N)=S)C(=O)Nc1c(C)cccc1C (stereo unspecified) | – | > 100 | > 100 | > 100 | > 100 µM | > 100 | > 100 | > 100 | – | – | – | – | – | – | – | – | – | – | – | –
